In one data set the test system is MKN-45 cells. Description: Inhibition of MKN-45 proliferation (MTT). Format: cell-based, human. As to conditions: Homo sapiens, MKN-45, MKN-45 proliferation. The method in brief:
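Viability measured by MTT dye reduction on day 5 after compound addition on day 2 to MKN-45 gastric adenocarcinoma cells (high Met expression) seeded on day 1 in complete medium.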

The target of the next data set is c-Met (Homo sapiens, UniProt P08581). Put plainly: Inhibition of c-Met kinase phosphorylation in MKN-45 cells (cell based ELISA). Also noted: endogenous in cells; host or cells: MKN-45. The following applies: 1 h. On the procedure:
Inhibition of c-Met Kinase Phosphorylation in MKN-45 Cells:
MKN45 cells are a prototype of “c-Met addicted” cells having constitutively activated c-Met kinase similar to that observed in sub-sects of gastric or hepatocellular cancer patients with dysregulated c-Met kinase activity. Inhibition of Met phosphorylation was determined using a cell based ELISA assay according to the following schedule:
Day 1: MKN-45 cells were plated in 96-well plates in complete growth medium.
Day 2: Inhibitors at the desired concentration were added to the plates and incubated for 1 h and lysed subsequently.
Lysates were transferred to NUNC Maxisorp plates coated with anti-cMet receptor antibody. Phopho-tyrosine mAb and HRP-lined anti-mouse IgG were used as primary and secondary antibodies respectively. Optical density was measured on a microplate reader (BMG Labtech., Germany) at […]. Inhibition of c-Met phosphorylation in this cell line indicates a therapeutic potential for test compounds in patients diagnosed with cancers caused by aberrant c-Met kinase signalling.

Another data set addresses Met kinase (Homo sapiens, UniProt P08581). Description: MET kinase assay (colorimetric determination of c-Met kinase activity, HTScan Met Kinase Assay Kit). As to conditions: for IC50: c-Met kinase. Further details: purchased Cell Signalling Technology, Beverly, Mass. Format: biochemical. The source says:
1. MET Kinase Assay Protocol:
Colorimetric Determination of c-Met Kinase Activity
The receptor tyrosine kinase c-Met is a heterodimeric transmembrane glycoprotein involved in several cellular processes that aid in tumor progression. Phosphorylation of the tyrosine residues in the c-Met kinase domain is critical for its activity and the resulting down-stream effects. The colorimetric assay allows detection of the phosphorylated form of a biotinylated peptide upon activation of human recombinant Met kinase.
MET Kinase Assay Protocol:
c-Met Kinase activity shall be determined using an HTScan® Met Kinase Assay Kit (Cell Signalling Technology, Beverly, Mass.) with modifications. All incubations are carried out at room temperature. Briefly, 12.5 μl of a 4× reaction cocktail (DTT/Kinase buffer containing appropriate quantity of human Met kinase) is added to each well of a 96-well plate containing 12.5 μl pre-diluted compound of interest and incubated for 5 minutes. After the initial incubation, 25 μl/well of 2×ATP/biotinylated peptide is added and incubated for an additional 30 minutes. The reaction is terminated by the addition of 50 μl/well stop buffer (50 mM EDTA, pH 8.0). The reaction mixture (25 μl/well) is then transferred to a streptavidin coated plate (Perkin Elmer, Cat#4009-0010) containing 75 μl dH2O and incubated for 60 minutes. The plate is washed with 200 μl/well wash buffer (1×PBS, 0.05% Tween-20). After washing, 100 μl/well phospho-tyrosine mAb (1:1000 in wash buffer containing 1% BSA) is added and incubated for 60 minutes. After another round of washes, 100 μl/well europium labelled anti-mouse IgG (1:500 in wash buffer containing 1% BSA) is added and incubated for an additional 30 minutes. Following additional washes, 100 μl/well Delfia® enhancement solution (Perkin Elmer, Cat#1244-105) is added and incubated for 45 minutes. Florescence is measured on a microplate reader (BMG Labtech., Germany) at 340 nm (excitation) and 615 nm (emission) for calculating % inhibition. Data generated can be analyzed further using Graphpad Prism (Graphpad software, San Diego Calif.) for determination of IC50.

Sequence of Met kinase (P08581 25-1390): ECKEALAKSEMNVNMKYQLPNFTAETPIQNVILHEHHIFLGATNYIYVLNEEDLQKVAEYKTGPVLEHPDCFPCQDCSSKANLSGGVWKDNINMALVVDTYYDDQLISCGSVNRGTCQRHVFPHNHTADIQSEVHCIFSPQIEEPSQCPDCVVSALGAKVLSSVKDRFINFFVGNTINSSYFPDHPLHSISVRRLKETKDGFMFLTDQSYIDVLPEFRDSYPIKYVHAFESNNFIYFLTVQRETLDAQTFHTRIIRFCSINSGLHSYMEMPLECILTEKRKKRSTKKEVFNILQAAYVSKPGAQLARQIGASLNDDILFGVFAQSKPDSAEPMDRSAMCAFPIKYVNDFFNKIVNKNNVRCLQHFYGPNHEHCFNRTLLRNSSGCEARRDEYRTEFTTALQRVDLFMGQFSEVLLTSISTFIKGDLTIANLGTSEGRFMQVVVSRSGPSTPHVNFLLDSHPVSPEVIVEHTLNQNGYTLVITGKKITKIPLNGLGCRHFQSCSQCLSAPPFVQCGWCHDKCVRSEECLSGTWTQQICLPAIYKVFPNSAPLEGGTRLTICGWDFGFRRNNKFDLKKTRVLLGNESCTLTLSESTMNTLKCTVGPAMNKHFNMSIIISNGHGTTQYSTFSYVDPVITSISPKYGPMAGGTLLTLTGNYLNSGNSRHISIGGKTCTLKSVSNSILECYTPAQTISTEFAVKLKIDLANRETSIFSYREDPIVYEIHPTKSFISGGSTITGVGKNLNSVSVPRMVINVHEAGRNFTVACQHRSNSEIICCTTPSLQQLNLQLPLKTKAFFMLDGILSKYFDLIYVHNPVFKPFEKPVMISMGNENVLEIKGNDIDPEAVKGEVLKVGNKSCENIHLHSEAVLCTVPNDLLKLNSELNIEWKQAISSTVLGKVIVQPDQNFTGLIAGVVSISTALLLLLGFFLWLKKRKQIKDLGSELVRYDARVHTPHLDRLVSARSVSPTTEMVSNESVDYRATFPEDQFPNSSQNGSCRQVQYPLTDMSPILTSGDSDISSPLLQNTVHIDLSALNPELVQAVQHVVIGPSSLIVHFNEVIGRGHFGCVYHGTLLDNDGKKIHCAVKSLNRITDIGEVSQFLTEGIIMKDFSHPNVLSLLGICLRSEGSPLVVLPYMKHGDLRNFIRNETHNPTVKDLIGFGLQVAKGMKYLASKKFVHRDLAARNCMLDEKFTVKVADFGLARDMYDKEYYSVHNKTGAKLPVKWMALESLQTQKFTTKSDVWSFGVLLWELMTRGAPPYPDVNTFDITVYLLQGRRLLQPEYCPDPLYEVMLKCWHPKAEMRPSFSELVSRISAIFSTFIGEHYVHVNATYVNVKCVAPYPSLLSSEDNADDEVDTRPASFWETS
Sequence of c-Met (P08581 25-1390): as above

On to `CCNC(=O)c1ccc(-c2ccc3nnn(Cc4ccc5ncccc5c4)c3n2)cc1F` [Ex43], for which the GI50 in the data set on MKN-45 cells was not above 50 nM. This compound showed an IC50 on c-Met of 50 to 150 nM.

Regarding `COc1cccc(-c2ccc3nnn(Cc4ccc5ncccc5c4)c3n2)c1` [Ex 2, 6-((5-(3-Methoxyphenyl)-3H-[1,2,3]triazolo[4,5-b]pyridin-3-yl)methyl)quinoline], the melting point was 133 to 135 °C. Besides, in the data set with MKN-45 cells, the 50% growth inhibitory concentration (GI50) was more than 1000 nM. Moreover, on Met kinase, the inhibition at 1 µM fell in the range of 75 to 100% and the IC50 lay in the range of 50 to 100 nM.

For `OCc1ccc(-c2ccc3nnn(Cc4ccc5ncccc5c4)c3n2)cc1` [Ex 6, (4-(3-(quinolin-6-ylmethyl)-3H-[1,2,3]triazolo[4,5-b]pyridin-5-yl)phenyl)methanol], the melting point lay within 187 to 189 °C. In the data set with MKN-45 cells, this compound displayed a GI50 of 150 to 500 nM. Also, at Met kinase, the inhibition at 1 µM lay within 75 to 100% and the concentration for half-maximal inhibition (IC50) lay in the range of 50 to 100 nM.

As to `O=C(O)c1ccc(-c2ccc3nnn(Cc4ccc5ncccc5c4)c3n2)cc1` [Ex 8, 4-(3-(quinolin-6-ylmethyl)-3H-[1,2,3]triazolo[4,5-b]pyridin-5-yl)benzoic acid], the melting point was in the range of 245 to 247 °C. In the data set with MKN-45 cells, this compound registered a GI50 of more than 1000 nM. In addition, at Met kinase, the inhibition at 1 µM lay in the range of 75 to 100% and the IC50 is 50 to 100 nM.

As to `CNC(=O)c1ccc(-c2ccc3nnn(Cc4ccc5ncccc5c4)c3n2)cc1` [Ex 9, N-Methyl-4-(3-(quinolin-6-ylmethyl)-3H-[1,2,3]triazolo[4,5-b]pyridin-5-yl)benzamide], the melting point fell in the range of 220 to 222 °C. In the data set with MKN-45 cells, this compound yielded a GI50 of 50 to 150 nM. On Met kinase, this compound had an inhibition at 1 µM of 75 to 100% and a half-maximal inhibitory concentration (IC50) of 50 to 100 nM. The same compound gave an IC50 against c-Met of 50 to 150 nM.

Compound `O=C(O)c1ccc(-c2ccc3nnn(Cc4ccc5ncccc5c4)c3n2)cc1F` [Ex 13, 2-Fluoro-4-(3-(quinolin-6-ylmethyl)-3H-[1,2,3]triazolo[4,5-b]pyridin-5-yl)benzoic acid] returned a melting point of 254 to 257 °C. At Met kinase, this compound returned an inhibition at 1 µM of 75 to 100% and a half-inhibitory concentration (IC50) of 50 to 100 nM.

Compound `OCc1ccc(-c2ccc3nnn(Cc4ccc5ncccc5c4)c3n2)cc1F` [Ex 16, (2-Fluoro-4-(3-(quinolin-6-ylmethyl)-3H-[1,2,3]triazolo[4,5-b]pyridin-5-yl)phenyl)methanol] had a melting point of 202 to 204 °C. For the same compound, in the data set with MKN-45 cells, the 50% growth inhibitory concentration (GI50) is not above 50 nM. On Met kinase, this compound yielded an inhibition at 1 µM of 75 to 100% and an IC50 of 50 to 100 nM. The IC50 at c-Met was not above 50 nM.

The compound `NC(=O)c1ccc(-c2ccc3nnn(Cc4ccc5ncccc5c4)c3n2)cc1` [Ex 21, 4-(3-(quinolin-6-ylmethyl)-3H-[1,2,3]triazolo[4,5-b]pyridin-5-yl)benzamide] had a melting point of 229 to 231 °C. In addition, the GI50 with MKN-45 cells fell in the range of 150 to 500 nM. On Met kinase, the inhibition at 1 µM was in the range of 50 to 75% and the IC50 is 250 to 1000 nM.

For `O=C(NC1CC1)c1ccc(-c2ccc3nnn(Cc4ccc5ncccc5c4)c3n2)cc1F` [Ex 46, N-Cyclopropyl-2-fluoro-4-(3-(quinolin-6-ylmethyl)-3H-[1,2,3]triazolo[4,5-b]pyridin-5-yl)benzamide], in the data set on MKN-45 cells, the concentration for 50% growth inhibition (GI50) was not above 50 nM. The compound also displayed a 50% inhibitory concentration (IC50) at c-Met of 50 to 150 nM.

In turn, `CC(c1ccc2ncccc2c1)n1nnc2ccc(-c3cnn(CCO)c3)nc21` (stereo not shown) [Ex 164, 2-(4-(3-(1-(Quinolin-6-yl)ethyl)-3H-[1,2,3]triazolo[4,5-b]pyridin-5-yl)-1H-pyrazol-1-yl)ethanol] gave a melting point of 188 to 191 °C. In the data set with MKN-45 cells, the GI50 lay in the range of 50 to 150 nM. This compound showed a half-maximal inhibitory concentration (IC50) against c-Met of 50 to 150 nM.

With `OCc1cc(-c2ccc3nnn(Cc4ccc5ncccc5c4)c3n2)cs1` [Ex 188, (4-(3-(Quinolin-6-ylmethyl)-3H-[1,2,3]triazolo[4,5-b]pyridin-5-yl)thiophen-2-yl) methanol], the melting point was 188 to 191 °C. In the data set on MKN-45 cells, this compound had a concentration for 50% growth inhibition (GI50) of 50 to 150 nM and an inhibition at 0.1 µM of 75 to 100%.

For `CCc1n[nH]c2cc(-c3ccc4nnn(Cc5ccc6ncccc6c5)c4n3)ccc12` [Ex 191, 6-((5-(3-ethyl-1H-indazol-6-yl)-3H-[1,2,3]triazolo[4,5-b]pyridin-3-yl)methyl)quinoline], the melting point fell in the range of 211 to 213 °C. In the data set with MKN-45 cells, this compound gave an inhibition at 0.1 µM of 25 to 50% and an inhibition at 1 µM of 25 to 50%.

Take `Cc1csc(-c2ccc3nnn(Cc4ccc5ncccc5c4)c3n2)c1` [Ex 193, 6-((5-(4-Methylthiophen-2-yl)-3H-[1,2,3]triazolo[4,5-b]pyridin-3-yl)methyl)quinoline]: the melting point lay within 153 to 156 °C. Moreover, in the data set with MKN-45 cells, the inhibition at 0.1 µM is less than 25% and the inhibition at 1 µM was in the range of 50 to 75%.

For `Cc1ccc(-c2ccc3nnn(Cc4ccc5ncccc5c4)c3n2)s1` [Ex 194, 6-((5-(5-Methylthiophen-2-yl)-3H-[1,2,3]triazolo[4,5-b]pyridin-3-yl)methyl)quinoline], the melting point lay in the range of 154 to 156 °C. Further, in the data set on MKN-45 cells, the inhibition at 0.1 µM is less than 25% and the inhibition at 1 µM fell in the range of 50 to 75%.

Compound `c1cnc2ccc(Cn3nnc4ccc(-c5ccc(N6CCOCC6)nc5)nc43)cc2c1` [Ex 195, 4-(5-(3-(Quinolin-6-ylmethyl)-3H-[1,2,3]triazolo[4,5-b]pyridin-5-yl)pyridin-2-yl)morpholine] returned a melting point of 183 to 185 °C. In the data set with MKN-45 cells, this compound displayed an inhibition at 0.1 µM of 25 to 50% and an inhibition at 1 µM of 50 to 75%.

`c1cnc2ccc(Cn3nnc4ccc(-c5ccc(N6CCCCC6)nc5)nc43)cc2c1` [Ex 196, 6-((5-(6-(Piperidin-1-yl)pyridin-3-yl)-3H-[1,2,3]triazolo[4,5-b]pyridin-3-yl)methyl)quinoline] gave a melting point of 133 to 135 °C. In the data set on MKN-45 cells, the inhibition at 0.1 µM is less than 25% and the inhibition at 1 µM was less than 25%.

For `CCn1cc(-c2ccc3nnn(Cc4ccc5ncccc5c4)c3n2)cn1` [Ex 197, 6-((5-(1-Ethyl-1H-pyrazol-4-yl)-3H-[1,2,3]triazolo[4,5-b]pyridin-3-yl)methyl)quinoline], the melting point was 132 to 134 °C. In the data set with MKN-45 cells, this compound showed an inhibition at 0.1 µM of 25 to 50%.

For the compound `CC(C)n1cc(-c2ccc3nnn(Cc4ccc5ncccc5c4)c3n2)cn1` [Ex 198, 6-((5-(1-Isopropyl-1H-pyrazol-4-yl)-3H-[1,2,3]triazolo[4,5-b]pyridin-3-yl)methyl)quinoline], the melting point was in the range of 126 to 128 °C. For the same compound, the inhibition at 0.1 µM in the data set on MKN-45 cells is less than 25%.

As to `CC(C)Cn1cc(-c2ccc3nnn(Cc4ccc5ncccc5c4)c3n2)cn1` [Ex 199, 6-((5-(1-Isobutyl-1H-pyrazol-4-yl)-3H-[1,2,3]triazolo[4,5-b]pyridin-3-yl)methyl)quinoline], the melting point was 160 to 163 °C. This compound had an inhibition at 0.1 µM with MKN-45 cells of less than 25%.

Turning to `C[C@@H](c1ccc2ncccc2c1)n1nnc2ccc(-c3ccc(C(N)=O)c(Cl)c3)nc21` [Ex 221, (−)-2-chloro-4-(3-(1-(quinolin-6-yl)ethyl)-3H-[1,2,3]triazolo[4,5-b]pyridin-5-yl) benzamide], in the data set on MKN-45 cells, the GI50 was not above 50 nM and the inhibition at 0.1 µM fell in the range of 50 to 75%. At Met kinase, this compound gave an inhibition at 1 µM of 75 to 100% and a concentration for half-maximal inhibition (IC50) of 50 to 100 nM.

In the data set on MKN-45 cells, `C[C@H](c1ccc2ncccc2c1)n1nnc2ccc(-c3ccc(C(N)=O)c(Cl)c3)nc21` [Ex 222, (+)-2-chloro-4-(3-(1-(quinolin-6-yl)ethyl)-3H-[1,2,3]triazolo[4,5-b]pyridin-5-yl) benzamide] registered an inhibition at 0.1 µM of 25 to 50%. In addition, at Met kinase, the inhibition at 1 µM lay in the range of 50 to 75% and the IC50 lay within 250 to 1000 nM.

As a reminder, the GI50 is the concentration at which growth is held to half of that of the control. Read a high GI50 as lower sensitivity of the cells. In general, IC50 refers to the concentration needed to halve the response being measured. By inhibition is commonly meant the change of the read-out against control, counted positive when it falls. A low value points to little suppression. For orientation: melting point means the temperature, or range, at which the solid turns liquid.
